Assay [1] relates to Escherichia coli EC-1: VOGEL, mouse virulent. The assay can be described thus: MIC determination (CLSI), strain EC-1. The class given is cell-based. The conditions noted are these: strain EC-1; generated in the same manner as in Table 4; unit assumed. How it is done: (§1) The in vitro antibacterial activity of compounds described in the Examples was evaluated by minimum inhibitory concentration (MIC) testing according to Clinical and Laboratory Standards Institute (CLSI, formerly NCCLS) guidelines. See: Clinical and Laboratory Standards Institute. Methods for Dilution Antimicrobial Susceptibility Tests for Bacteria that Grow Aerobically; Approved Standard-Seventh Edition. CLSI document M7-A7 [ISBN 1-56238-587-9]. Clinical and Laboratory Standards Institute, 940 West Valley Road, Suite 1400, Wayne, Pa. 19087-1898 USA, 2006; also Clinical and Laboratory Standards Institute. Performance Standards for Antimicrobial Susceptibility Testing; Eighteenth Informational Supplement. CLSI document M100-S18 [ISBN1-56238-653-0].Clinical and Laboratory Standards Institute.
(§2) The following bacterial strains were used in these MIC determinations:
3) Escherichia coli EC-1: VOGEL, mouse virulent labeled as EC-1 in Tables 4 and 5;

Assay [2] concerns Pseudomonas aeruginosa UI-18: Wild-type (PA-7). In words: MIC determination (CLSI), strain PA-7. The settings on record: strain PA-7; generated in the same manner as in Table 4; unit assumed. It is filed as cell-based. As to the method:
as §1, §2
1) Pseudomonas aeruginosa UI-18: Wild-type, labeled as PA-7 in Tables 4, and 5;

SMILES strings stand for the structures.

In turn, `CC(=O)c1ccc(-c2ccn(CCC(C)(C(=O)NO)S(C)(=O)=O)c(=O)c2)cc1O` (stereo not drawn) [Example 99, 4-[4-(4-acetyl-3-hydroxyphenyl)-2-oxopyridin-1(2H)-yl]-N-hydroxy-2-methyl-2-(methylsulfonyl)butanamide] came in with an EC-1 (MIC) in assay [1] of 8 µg/mL. Moreover, the PA-7 (MIC) in assay [2] came out at 16 µg/mL.

Take `CC(CCn1ccc(-c2ccc(OCCCN3CCCC(F)(F)C3)cc2)cc1=O)(C(=O)NO)S(C)(=O)=O` (stereo not drawn) [Example 100, 4-[4-{4-[3-(3,3-difluoropiperidin-1-yl)propoxy]phenyl}-2-oxopyridin-1(2H)-yl]-N-hydroxy-2-methyl-2-(methylsulfonyl)butanamide]: in assay [1], the EC-1 (MIC) was 1 µg/mL. Also, in assay [2], the PA-7 (MIC) stood at 8 µg/mL.

For the compound `CC(CCn1ccc(-c2ccc([N+](=O)[O-])cc2)cc1=O)(C(=O)NO)S(C)(=O)=O` (stereo not drawn) [Example 101, N-hydroxy-2-methyl-2-(methylsulfonyl)-4-[4-(4-nitrophenyl)-2-oxopyridin-1(2H)-yl]butanamide], in assay [1], the EC-1 (MIC) came to 8 µg/mL. This compound also returned a PA-7 (MIC) in assay [2] of 4 µg/mL.

Consider `CNS(=O)(=O)c1ccc(-c2ccn(CCC(C)(C(=O)NO)S(C)(=O)=O)c(=O)c2)cc1` (stereo not drawn) [Example 102, N-hydroxy-2-methyl-4-[4-{4-[(methylamino)sulfonyl]phenyl}-2-oxopyridin-1(2H)-yl]-2-(methylsulfonyl)butanamide], for which the EC-1 (MIC) in assay [1] was greater than 64 µg/mL. In addition, the PA-7 (MIC) in assay [2] is greater than 64 µg/mL.

Compound `CCNC(=O)c1cc(F)cc(-c2ccn(CCC(C)(C(=O)NO)S(C)(=O)=O)c(=O)c2)c1` (stereo not drawn) [Example 103, N-ethyl-3-fluoro-5-{1-[4-(hydroxyamino)-3-methyl-3-(methylsulfonyl)-4-oxobutyl]-2-oxo-1,2-dihydropyridin-4-yl}benzamide] gave an EC-1 (MIC) in assay [1] greater than 64 µg/mL. The same compound showed a PA-7 (MIC) in assay [2] greater than 64 µg/mL.

Compound `Cn1ccnc1-c1ccc(-c2ccn(CCC(C)(C(=O)NO)S(C)(=O)=O)c(=O)c2)cc1` (stereo not drawn) [Example 104, N-hydroxy-2-methyl-4-{4-[4-(1-methyl-1H-imidazol-2-yl)phenyl]-2-oxopyridin-1(2H)-yl}-2-(methylsulfonyl)butanamide] came in with an EC-1 (MIC) in assay [1] greater than 64 µg/mL. Besides, in assay [2], the PA-7 (MIC) was greater than 64 µg/mL.

Take `CCOc1ccc(Cl)cc1-c1ccn(CCC(C)(C(=O)NO)S(C)(=O)=O)c(=O)c1` (stereo not drawn) [Example 105, 4-[4-(5-chloro-2-ethoxyphenyl)-2-oxopyridin-1(2H)-yl]-N-hydroxy-2-methyl-2-(methylsulfonyl)butanamide]: in assay [1], the EC-1 (MIC) was greater than 64 µg/mL. Further, in assay [2], the PA-7 (MIC) was greater than 64 µg/mL.

Turning to `CN(C)S(=O)(=O)c1ccc(-c2ccn(CCC(C)(C(=O)NO)S(C)(=O)=O)c(=O)c2)cc1` (stereo not drawn) [Example 106, 4-[4-{4-[(dimethylamino)sulfonyl]phenyl}-2-oxopyridin-1(2H)-yl]-N-hydroxy-2-methyl-2-(methylsulfonyl)butanamide], the EC-1 (MIC) in assay [1] is greater than 64 µg/mL. Besides, the PA-7 (MIC) in assay [2] is 64 µg/mL.

For `CC(CCn1ccc(-c2ccsc2)cc1=O)(C(=O)NO)S(C)(=O)=O` (stereo not drawn) [Example 107, N-hydroxy-2-methyl-2-(methylsulfonyl)-4-[2-oxo-4-(3-thienyl)pyridin-1(2H)-yl]butanamide], in assay [1], the EC-1 (MIC) came to 32 µg/mL. Besides, the PA-7 (MIC) in assay [2] was determined as 16 µg/mL.

Turning to `Cc1ccc(N)cc1-c1ccn(CCC(C)(C(=O)NO)S(C)(=O)=O)c(=O)c1` (stereo not drawn) [Example 108, 4-[4-(5-amino-2-methylphenyl)-2-oxopyridin-1(2H)-yl]-N-hydroxy-2-methyl-2-(methylsulfonyl)butanamide], the EC-1 (MIC) in assay [1] is greater than 64 µg/mL. The same compound returned a PA-7 (MIC) in assay [2] greater than 64 µg/mL.

For the compound `CC(CCn1ccc(-c2cncc3ccccc23)cc1=O)(C(=O)NO)S(C)(=O)=O` (stereo not drawn) [Example 109, N-hydroxy-4-(4-isoquinolin-4-yl-2-oxopyridin-1(2H)-yl)-2-methyl-2-(methylsulfonyl)butanamide], in assay [1], the EC-1 (MIC) is greater than 64 µg/mL. Also, the PA-7 (MIC) in assay [2] is greater than 64 µg/mL.

`CC(CCn1ccc(-c2cccc(N)c2)cc1=O)(C(=O)NO)S(C)(=O)=O` (stereo not drawn) [Example 110, 4-[4-(3-aminophenyl)-2-oxopyridin-1(2H)-yl]-N-hydroxy-2-methyl-2-(methylsulfonyl)butanamide] had an EC-1 (MIC) in assay [1] greater than 64 µg/mL. The compound further displayed a PA-7 (MIC) in assay [2] of 64 µg/mL.

The compound `CC(CCn1ccc(-c2cccc(-n3cccn3)c2)cc1=O)(C(=O)NO)S(C)(=O)=O` (stereo not drawn) [Example 111, N-hydroxy-2-methyl-2-(methylsulfonyl)-4-{2-oxo-4-[3-(1H-pyrazol-1-yl)phenyl]pyridin-1(2H)-yl}butanamide] registered an EC-1 (MIC) in assay [1] greater than 64 µg/mL. Besides, the PA-7 (MIC) in assay [2] is greater than 64 µg/mL.

`Cc1cc(F)cc(-c2ccn(CCC(C)(C(=O)NO)S(C)(=O)=O)c(=O)c2)c1` (stereo not drawn) [Example 112, 4-[4-(3-fluoro-5-methylphenyl)-2-oxopyridin-1(2H)-yl]-N-hydroxy-2-methyl-2-(methylsulfonyl)butanamide] came in with an EC-1 (MIC) in assay [1] of 4 µg/mL. Also, in assay [2], the PA-7 (MIC) was determined as 4 µg/mL.

As to `Cc1cc(C(N)=O)ccc1-c1ccn(CCC(C)(C(=O)NO)S(C)(=O)=O)c(=O)c1` (stereo not drawn) [Example 113, 4-{1-[4-(hydroxyamino)-3-methyl-3-(methylsulfonyl)-4-oxobutyl]-2-oxo-1,2-dihydropyridin-4-yl}-3-methylbenzamide], in assay [1], the EC-1 (MIC) was greater than 64 µg/mL. Further, in assay [2], the PA-7 (MIC) is greater than 64 µg/mL.

Turning to `CC(CCn1ccc(-c2cccc(Cl)c2)cc1=O)(C(=O)NO)S(C)(=O)=O` (stereo not drawn) [Example 114, 4-[4-(3-chlorophenyl)-2-oxopyridin-1(2H)-yl]-N-hydroxy-2-methyl-2-(methylsulfonyl)butanamide], the EC-1 (MIC) in assay [1] is 2 µg/mL. Moreover, in assay [2], the PA-7 (MIC) was found to be 4 µg/mL.

As for `Cc1ccc(-c2ccn(CCC(C)(C(=O)NO)S(C)(=O)=O)c(=O)c2)cc1N` (stereo not drawn) [Example 115, 4-[4-(3-amino-4-methylphenyl)-2-oxopyridin-1(2H)-yl]-N-hydroxy-2-methyl-2-(methylsulfonyl)butanamide], the EC-1 (MIC) in assay [1] was 64 µg/mL. In assay [2], this compound returned a PA-7 (MIC) of 16 µg/mL.

In turn, `CN(C)c1ccc(-c2ccn(CCC(C)(C(=O)NO)S(C)(=O)=O)c(=O)c2)cn1` (stereo not drawn) [Example 116, 4-[6-(dimethylamino)-2′-oxo-3,4′-bipyridin-1′(2′H)-yl]-N-hydroxy-2-methyl-2-(methylsulfonyl)butanamide] displayed an EC-1 (MIC) in assay [1] of 16 µg/mL. For the same compound, in assay [2], the PA-7 (MIC) is 64 µg/mL.

Consider `CC(CCn1ccc(-c2cc(F)ccc2O)cc1=O)(C(=O)NO)S(C)(=O)=O` (stereo not drawn) [Example 117, 4-[4-(5-fluoro-2-hydroxyphenyl)-2-oxopyridin-1(2H)-yl]-N-hydroxy-2-methyl-2-(methylsulfonyl)butanamide], for which the EC-1 (MIC) in assay [1] was greater than 64 µg/mL. This compound had a PA-7 (MIC) in assay [2] greater than 64 µg/mL.

With `CC(CCn1ccc(-c2ccoc2)cc1=O)(C(=O)NO)S(C)(=O)=O` (stereo not drawn) [Example 118, 4-[4-(3-furyl)-2-oxopyridin-1(2H)-yl]-N-hydroxy-2-methyl-2-(methylsulfonyl)butanamide], in assay [1], the EC-1 (MIC) is greater than 64 µg/mL. In assay [2], this compound had a PA-7 (MIC) of 64 µg/mL.

Regarding `CC(CCn1ccc(-c2ccc(C3CCCCC3)cc2)cc1=O)(C(=O)NO)S(C)(=O)=O` (stereo not drawn) [Example 119, 4-[4-(4-cyclohexylphenyl)-2-oxopyridin-1(2H)-yl]-N-hydroxy-2-methyl-2-(methylsulfonyl)butanamide], the EC-1 (MIC) in assay [1] was found to be 0.5 µg/mL. In assay [2], this compound showed a PA-7 (MIC) of 16 µg/mL.

The record behind these values is patent publication US8846933B2, “N-link hydroxamic acid derivatives useful as antibacterial agents” (Pfizer Inc., priority 2009, dated 2014).
